# Reference: ChEMBL document CHEMBL3399975, “Rational design of specific binding hairpin Py-Im polyamides targeting human telomere sequences” (Bioorg Med Chem, 2015)
# How the values were obtained:
# [1] = Binding affinity to human telomeric sequence in HBS-EP buffer at pH 7.4 at 25 degC by SPR analysis
# [2] = species: Homo sapiens; assay: Binding affinity to human telomeric sequence assessed as change in melting temperature at pH 7 by UV-Vis spectrophotometry
# [3] = Binding affinity to 5'-GGTTAAGGTTAGG-3'/3'-CCAATTCCAATCC-5' (unknown origin) assessed as change in melting temperature at pH 7 by UV-Vis spectrophotometry
# [4] = Binding affinity to 5'-GGTTAGAGTTAGG-3'/3'-CCAATCTCAATCC-5' (unknown origin) assessed as change in melting temperature at pH 7 by UV-Vis spectrophotometry
# [5] = Binding affinity to 5'-Biotin-GGTTAAGGTTAGGTTTTCCTAACCTTAACC-3' (unknown origin) in HBS-EP buffer at pH 7.4 at 25 degC by SPR analysis
# [6] = Binding affinity to 5'-Biotin-GGTTAGAGTTAGGTTTTCCTAACTCTAACC-3' (unknown origin) in HBS-EP buffer at pH 7.4 at 25 degC by SPR analysis
# [7] = Selectivity ratio of KD for 5'-Biotin-GGTTAAGGTTAGGTTTTCCTAACCTTAACC-3' (unknown origin) to KD for human telomeric sequence
# [8] = Selectivity ratio of KD for 5'-Biotin-GGTTAGAGTTAGGTTTTCCTAACTCTAACC-3' (unknown origin) to KD for human telomeric sequence
SMILES,Kd [1] [nM],ΔTm [2] [°C],ΔTm [3] [°C],ΔTm [4] [°C],Kd [5] [nM],Kd [6] [nM],Ratio [7],Ratio [8]
CN(CCCNC(=O)CCNC(=O)c1nc(NC(=O)c2cc(NC(=O)c3cc(NC(=O)c4cc(NC(=O)[C@@H](CCNC(=O)c5cc(NC(=O)c6nc(NC(=O)c7nccn7C)cn6C)cn5C)NC(=O)COCCOCCNC(=O)c5nc(NC(=O)c6cc(NC(=O)c7cc(NC(=O)c8cc(NC(=O)[C@H](N)CCNC(=O)c9cc(NC(=O)c%10nc(NC(=O)c%11nccn%11C)cn%10C)cn9C)cn8C)cn7C)cn6C)cn5C)cn4C)cn3C)cn2C)cn1C)CCCNS(=O)(=O)c1ccc(C2=c3cc4c5c(c3Oc3c2cc2c6c3CCCN6CCC2)CCC[N+]=5CCC4)c(S(=O)(=O)[O-])c1,0.93,–,–,–,–,–,–,–
CN(CCCN)CCCNC(=O)CCNC(=O)c1cc(NC(=O)c2cc(NC(=O)c3cc(NC(=O)c4cc(NC(=O)[C@H](N)CCNC(=O)c5cc(NC(=O)c6nc(NC(=O)c7nc(NC(=O)c8nccn8C)cn7C)cn6C)cn5C)cn4C)cn3C)cn2C)cn1C,1.56,27.7,24.8,18.3,20.7,51.1,13.3,32.8
CN(CCCN)CCCNC(=O)CCNC(=O)c1cc(NC(=O)c2cc(NC(=O)c3cc(NC(=O)c4cc(NC(=O)[C@H](N)CCNC(=O)c5cc(NC(=O)c6nc(NC(=O)c7nccn7C)cn6C)cn5C)cn4C)cn3C)cn2C)cn1C,0.431,27.4,31.6,21.6,0.00561,10.6,0.013,24.6
CN(CCCN)CCCNC(=O)CCNC(=O)c1nc(NC(=O)c2cc(NC(=O)c3cc(NC(=O)c4cc(NC(=O)[C@H](N)CCNC(=O)c5cc(NC(=O)c6nc(NC(=O)c7nccn7C)cn6C)cn5C)cn4C)cn3C)cn2C)cn1C,1.76,27.8,29.3,22.4,0.627,30.4,0.36,17.3
